In US20200323843A1 (IRR, Inc., priority 2010, published 2020):
Entries after “also recorded” stand apart in the source; their conditions may differ. Like-named read-outs stand apart in the source and are kept apart here.

Tests used:
[1] = tested on: influenza; conditions: 10 days; levocetirizine 5 mg po and/or montelukast 10 mg po
Text: A cohort of 20 patients between the ages of 15-30 years of age (and no other co-morbid disease processes), presenting with classic symptoms of influenza: headache, fever, dry cough and extreme fatigue, are identified and divided into four treatment groups. The first group (CONTROL) receives two placebo tablet(s) each administered together at the same time each day for a period of 10 days.
Laboratory data shall consist of a complete blood count, comprehensive metabolic panel, C-reactive protein, T and B cell lymphocyte panel, chest x-ray, and viral and aerobic cultures of the airway. Vital signs will be logged at the initial visit and the patient's fever profile tracked over the interim. Onset, duration and intensity of symptoms (headache, fever, cough, fatigue) will be logged in addition to the time to resolution of symptoms (time zero—first dose of medication(s)). Second endpoint data will include the time it takes to return to full activity, work/school.

[2] = tested on: histamine induced wheal and flare; conditions: cited from earlier work
[3] = tested on: human rhinovirus; conditions: airway epithelial cells; cited from earlier work
[4] = tested on: eosinophil migration, IL-4, IL-6, IL-8; conditions: cited from earlier work
[5] = cited from earlier work
[6] = cited from earlier work; remark: listed apart in the source
[7] = cited from earlier work; remark: listed apart in the source
[8] = tested on: influenza; conditions: patients with influenza; cited from earlier work

O=C(O)COCCN1CCN([C@H](c2ccccc2)c2ccc(Cl)cc2)CC1 [Levocetirizine, levocetirizine]
influenza symptoms [1]: reduced fever profile and overall feeling of fatigue, without significant foreshortening of the disease process
potency among the five modern generation antihistamines ([2]; histamine induced wheal and flare data): most potent
effectiveness compared with fexofenadine ([2]; levocetirizine 5 mg per day vs fexofenadine 180 mg per day): more effective
rhinovirus-induced ICAM-1 and cytokine expression and viral replication [3]: inhibits
eosinophil migration [4]: decrease
inflammatory mediators, IL-4, IL-6, and IL-8 [4]: decrease
Steady-state level ([5]; in vivo): 40 h
time to steady state level ([5]; in vivo): 40 h
principal side effect ([6]; at higher doses): Sedation
dose that can be safely administered ([6]; humans): up to 30 mg/day

CC(C)(O)c1ccccc1CC[C@@H](SCC1(CC(=O)O)CC1)c1cccc(/C=C/c2ccc3ccc(Cl)cc3n2)c1 [Montelukast, montelukast]
plasma concentration area under the curve profile, IV vs oral tablet ([5]; IV 7 mg vs approved 10 mg oral tablet): comparable
drug interactions with warfarin, theophylline, digoxin, terfenadine, oral contraceptives, or prednisone ([5]; in vivo, po): no drug interactions
absorption ([5]; in vivo): rapidly absorbed
linear pharmacokinetics, up to dose ([5]; in vivo): ≤ 50 mg
time to peak plasma concentration ([5]; in vivo): 3 to 4 h
oral bioavailability and Cmax, effect of a standard meal ([5]; standard meal): not affected
dose administered without clinically important adverse experiences ([7]; adult patients, 22 weeks): up to 200 mg/day
dose administered without clinically important adverse experiences ([7]; short-term studies, approximately one week): up to 900 mg/day

CCOC(=O)C1=C[C@@H](OC(CC)CC)[C@H](NC(C)=O)[C@@H](N)C1 [oseltamivir]
influenza related lower respiratory tract infections/complications [8]: has not been shown to decrease; also recorded: did not appear to reduce
